The values that follow come from patent US20260201008A1, “SECRETIN-DERIVED GLP1R SELECTIVE AGONISTS” (GUBRA A/S, priority 2023, published 2026).

Numbered stars: 1 amine (or outer) side, 2 acyl side, 3 side chain; on linkers, the order of the positions; unused ones are H or OH. Square brackets hold non-standard residues; d marks the D form. Side chains are listed from the residue outwards. Peptide text beside a SMILES is read from it. * marks the point of attachment. C20 diacid = O=C(O)CCCCCCCCCCCCCCCCCCC(=O)*; γGlu = O=C(O)[C@H](CCC(=O)[*:2])N[*:1]; AEEA = NCCOCCOCC(=O)O; Aib = CC(C)(N)C(=O)O

For one series, the target named is SCTR (Homo sapiens, UniProt P47872). Kind of series: hSCTR potency, cAMP accumulation in CHO-K1 cells stably overexpressing hSCTR. The series is classed as cell-based. Further details: alternatively Euroscreen ES-712-AF; FAST-0161L; host or cells: CHO-K1. As to conditions: cAMP accumulation, CHO-K1 cells overexpressing hSCTR; read-out: pEC50 hSCTR (converted). The gist of the method: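 CHO-K1/hSCTR cells; DPBS + 0.05% casein + 0.5 mM IBMX; 30 min RT stimulation; cAMP by TR-FRET read at 1 h. Crude peptides: 5-point 10-fold dilutions, n=1. Purified: 11-point 3-fold dilutions, n=2. EC50 via variable-slope fit.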
For orientation: Changes in cAMP serve as a functional read-out for many G protein-coupled receptors.

Series [1] can be described thus: Fibril formation of crude library peptides (Thioflavin T). The series is classed as physicochemical. Further details: key: average ThT fluorescence emission at 480 nm (ex 450 nm), raw units. To be noted: Physical stability of peptides. In outline: (§1)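 Fibril formation is scored as average ThT fluorescence from duplicate samples monitored for 72 h at 40° C with shaking stress. Turbidity is the absorbance at 600 nm taken before heating. Peptide concentration was 267 μM at pH 4.0 or pH 7.0.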

Another series deals with GLP1R (Homo sapiens, UniProt P43220). The series is described as follows: hGLP1R potency, cAMP accumulation in CHO-K1 cells stably overexpressing hGLP1R. The series is classed as cell-based. Further details: host or cells: CHO-K1. To be noted: for Selectivity: SCTR EC50/GLP1R EC50 ratio; for EC50: cAMP accumulation, CHO-K1 cells overexpressing hGLP1R, read-out: pEC50 hGLPR1 (converted). The gist of the method:
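TR-FRET cAMP read-out, one hour after reagent addition, following 30 min compound exposure at RT in DPBS/0.05% casein/0.5 mM IBMX. Crude peptides: 5 points, 10-fold steps, n=1. Purified peptides: 11 points, 3-fold steps, n=2. EC50 fitted with a variable-slope sigmoid.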

Series [2] in a line: Turbidity of crude library peptides (absorbance at 600 nm). The series is classed as physicochemical. As to conditions: Physical stability of peptides. The gist of the method:
as §1

Chain of GLP1R (P43220 24-463): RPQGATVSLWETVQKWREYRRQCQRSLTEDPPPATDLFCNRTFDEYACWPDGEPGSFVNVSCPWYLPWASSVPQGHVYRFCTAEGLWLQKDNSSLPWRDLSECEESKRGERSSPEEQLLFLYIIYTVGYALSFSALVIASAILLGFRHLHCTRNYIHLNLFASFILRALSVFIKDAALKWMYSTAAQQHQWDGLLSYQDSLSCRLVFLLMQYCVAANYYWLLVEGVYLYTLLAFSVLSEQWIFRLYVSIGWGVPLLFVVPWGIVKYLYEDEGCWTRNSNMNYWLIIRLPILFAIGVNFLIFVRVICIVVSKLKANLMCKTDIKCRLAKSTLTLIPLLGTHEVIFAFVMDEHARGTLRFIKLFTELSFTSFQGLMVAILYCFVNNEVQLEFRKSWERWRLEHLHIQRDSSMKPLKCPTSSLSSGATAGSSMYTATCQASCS
Chain of SCTR (P47872 23-440): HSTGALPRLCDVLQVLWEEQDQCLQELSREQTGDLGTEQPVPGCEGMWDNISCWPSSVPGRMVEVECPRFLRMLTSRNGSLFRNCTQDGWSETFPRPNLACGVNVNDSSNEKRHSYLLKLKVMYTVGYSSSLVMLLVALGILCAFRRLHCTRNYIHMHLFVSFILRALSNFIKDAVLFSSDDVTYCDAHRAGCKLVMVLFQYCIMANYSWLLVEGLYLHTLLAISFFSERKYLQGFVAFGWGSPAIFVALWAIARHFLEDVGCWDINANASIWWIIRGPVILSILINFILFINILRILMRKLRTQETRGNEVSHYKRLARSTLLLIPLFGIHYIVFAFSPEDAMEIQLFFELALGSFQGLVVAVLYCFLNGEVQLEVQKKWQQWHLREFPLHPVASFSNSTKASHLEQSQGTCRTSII

In the case of `CC(C)C[C@H](NC(=O)[C@H](Cc1ccccc1)NC(=O)[C@H](CCCNC(=N)N)NC(=O)[C@H](CCC(N)=O)NC(=O)[C@H](CCC(N)=O)NC(=O)[C@H](C)NC(=O)[C@H](C)NC(=O)[C@H](Cc1ccccc1)NC(=O)[C@H](CCC(=O)O)NC(=O)[C@H](CCCCNC(=O)COCCOCCNC(=O)COCCOCCNC(=O)CC[C@H](NC(=O)CCCCCCCCCCCCCCCCCCC(=O)O)C(=O)O)NC(=O)[C@H](CC(C)C)NC(=O)[C@H](CCCNC(=N)N)NC(=O)[C@H](CO)NC(=O)[C@@H](NC(=O)[C@H](CC(=O)O)NC(=O)[C@H](CO)NC(=O)[C@@H](NC(=O)[C@H](Cc1ccccc1)NC(=O)[C@@H](NC(=O)CNC(=O)[C@H](CCC(=O)O)NC(=O)C(C)(C)NC(=O)[C@@H](N)Cc1c[nH]cn1)[C@@H](C)O)[C@@H](C)O)C(C)C)C(=O)N[C@@H](CCC(=O)O)C(=O)N[C@@H](Cc1c[nH]cn1)C(=O)N[C@@H](CC(C)C)C(=O)N[C@H](C(N)=O)C(C)C` [compound 24] (H-H[Aib]EGTFTSDVSRLK([AEEA-AEEA-γGlu-C20 diacid])EFAAQQRFLEHLV-NH2), the values for the EC50 at SCTR and at GLP1R were 158 nM and 0.0501 nM, respectively. Besides, the Fibril formation in series [1] came out at 221619. On GLP1R, the Selectivity was 2998. The “Turbidity (pH 7)” value in series [2] came to 0.08.

For `CC(C)C[C@H](NC(=O)[C@H](Cc1ccccc1)NC(=O)[C@H](CCCNC(=N)N)NC(=O)[C@H](CCC(N)=O)NC(=O)C(C)(C)NC(=O)[C@H](C)NC(=O)[C@H](C)NC(=O)[C@@H](NC(=O)[C@H](CCC(=O)O)NC(=O)[C@H](CCCCNC(=O)COCCOCCNC(=O)COCCOCCNC(=O)CC[C@H](NC(=O)CCCCCCCCCCCCCCCCCCC(=O)O)C(=O)O)NC(=O)[C@H](CC(C)C)NC(=O)[C@H](Cc1ccccc1)NC(=O)[C@H](CO)NC(=O)[C@@H](NC(=O)[C@H](CC(=O)O)NC(=O)[C@H](CO)NC(=O)[C@@H](NC(=O)[C@H](Cc1ccccc1)NC(=O)[C@@H](NC(=O)CNC(=O)[C@H](CCC(=O)O)NC(=O)C(C)(C)NC(=O)[C@@H](N)Cc1c[nH]cn1)[C@@H](C)O)[C@@H](C)O)C(C)C)[C@@H](C)O)C(=O)N[C@@H](CCC(=O)O)C(=O)N[C@@H](Cc1c[nH]cn1)C(=O)N[C@@H](CC(C)C)C(=O)N[C@H](C(N)=O)C(C)C` [compound 25] (H-H[Aib]EGTFTSDVSFLK([AEEA-AEEA-γGlu-C20 diacid])ETAA[Aib]QRFLEHLV-NH2), on SCTR, the EC50 is 7940 nM. Also, the Fibril formation in series [1] was 8584. Also, on GLP1R, the Selectivity is recorded as 8268 and the EC50 is 1 nM. In addition, the “Turbidity (pH 7)” value in series [2] amounted to 0.08.

Turning to `CC(C)C[C@H](NC(=O)[C@H](Cc1ccccc1)NC(=O)[C@H](CCCNC(=N)N)NC(=O)[C@H](CCC(N)=O)NC(=O)[C@@H](NC(=O)[C@H](C)NC(=O)[C@H](C)NC(=O)[C@@H](NC(=O)[C@H](CCC(=O)O)NC(=O)[C@H](CCCCNC(=O)COCCOCCNC(=O)COCCOCCNC(=O)CC[C@H](NC(=O)CCCCCCCCCCCCCCCCCCC(=O)O)C(=O)O)NC(=O)[C@H](CC(C)C)NC(=O)[C@H](CCCNC(=N)N)NC(=O)[C@H](CO)NC(=O)[C@@H](NC(=O)[C@H](CC(=O)O)NC(=O)[C@H](CO)NC(=O)[C@@H](NC(=O)[C@H](Cc1ccccc1)NC(=O)[C@@H](NC(=O)CNC(=O)[C@H](CCC(=O)O)NC(=O)C(C)(C)NC(=O)[C@@H](N)Cc1c[nH]cn1)[C@@H](C)O)[C@@H](C)O)C(C)C)[C@@H](C)O)[C@@H](C)O)C(=O)N[C@@H](CCC(=O)O)C(=O)N[C@@H](Cc1c[nH]cn1)C(=O)N[C@@H](CC(C)C)C(=O)N[C@H](C(N)=O)C(C)C` [compound 26] (H-H[Aib]EGTFTSDVSRLK([AEEA-AEEA-γGlu-C20 diacid])ETAATQRFLEHLV-NH2), at SCTR, the EC50 is 63.1 nM. In series [1], this molecule displayed a Fibril formation of 97558. Moreover, on GLP1R, the Selectivity was 4577 and the EC50 was 0.0126 nM. Further, in series [2], the “Turbidity (pH 7)” value turned out to be 0.08.

Consider `CC(C)C[C@H](NC(=O)[C@H](Cc1ccccc1)NC(=O)[C@H](CCCNC(=N)N)NC(=O)[C@H](CCC(N)=O)NC(=O)C(C)(C)NC(=O)[C@H](C)NC(=O)[C@H](C)NC(=O)[C@H](Cc1ccccc1)NC(=O)[C@H](CCC(=O)O)NC(=O)[C@H](CCCCNC(=O)COCCOCCNC(=O)COCCOCCNC(=O)CC[C@H](NC(=O)CCCCCCCCCCCCCCCCCCC(=O)O)C(=O)O)NC(=O)[C@H](CC(C)C)NC(=O)[C@H](Cc1ccccc1)NC(=O)[C@H](CO)NC(=O)[C@@H](NC(=O)[C@H](CC(=O)O)NC(=O)[C@H](CO)NC(=O)[C@@H](NC(=O)[C@H](Cc1ccccc1)NC(=O)[C@@H](NC(=O)CNC(=O)[C@H](CCC(=O)O)NC(=O)C(C)(C)NC(=O)[C@@H](N)Cc1c[nH]cn1)[C@@H](C)O)[C@@H](C)O)C(C)C)C(=O)N[C@@H](CCC(=O)O)C(=O)N[C@@H](Cc1c[nH]cn1)C(=O)N[C@@H](CC(C)C)C(=O)N[C@H](C(N)=O)C(C)C` [compound 27] (H-H[Aib]EGTFTSDVSFLK([AEEA-AEEA-γGlu-C20 diacid])EFAA[Aib]QRFLEHLV-NH2), for which the EC50 on SCTR was 3160 nM; on GLP1R, 0.1 nM. The Fibril formation in series [1] was determined as 16757. At GLP1R, the Selectivity was 33159. For the same molecule, the “Turbidity (pH 7)” value in series [2] came to 0.09.

Turning to `CC(C)C[C@H](NC(=O)[C@H](Cc1ccccc1)NC(=O)[C@H](CCCNC(=N)N)NC(=O)[C@H](CCC(N)=O)NC(=O)[C@H](C)NC(=O)[C@H](C)NC(=O)[C@H](C)NC(=O)[C@H](CCC(=O)O)NC(=O)[C@H](CCC(=O)O)NC(=O)[C@H](CCCCNC(=O)COCCOCCNC(=O)COCCOCCNC(=O)CC[C@H](NC(=O)CCCCCCCCCCCCCCCCCCC(=O)O)C(=O)O)NC(=O)[C@H](CC(C)C)NC(=O)[C@@H](NC(=O)[C@H](CO)NC(=O)[C@@H](NC(=O)[C@H](CC(=O)O)NC(=O)[C@H](CO)NC(=O)[C@@H](NC(=O)[C@H](Cc1ccccc1)NC(=O)[C@@H](NC(=O)CNC(=O)[C@H](CCC(=O)O)NC(=O)C(C)(C)NC(=O)[C@@H](N)Cc1c[nH]cn1)[C@@H](C)O)[C@@H](C)O)C(C)C)C(C)C)C(=O)N[C@@H](CCC(=O)O)C(=O)N[C@@H](Cc1c[nH]cn1)C(=O)N[C@@H](CC(C)C)C(=O)N[C@H](C(N)=O)C(C)C` [compound 28] (H-H[Aib]EGTFTSDVSVLK([AEEA-AEEA-γGlu-C20 diacid])EEAAAQRFLEHLV-NH2), the EC50 on SCTR is 1260 nM. Also, in series [1], the Fibril formation was 7910. On GLP1R, the Selectivity worked out at 55501 and the EC50 was 0.02 nM. For the same molecule, the “Turbidity (pH 7)” value in series [2] came to 0.09.

Consider `CC(C)C[C@H](NC(=O)[C@H](Cc1ccccc1)NC(=O)[C@H](CCCNC(=N)N)NC(=O)[C@H](CCC(N)=O)NC(=O)[C@H](C)NC(=O)[C@H](C)NC(=O)[C@H](C)NC(=O)[C@H](Cc1ccccc1)NC(=O)[C@H](CCC(=O)O)NC(=O)[C@H](CCCCNC(=O)COCCOCCNC(=O)COCCOCCNC(=O)CC[C@H](NC(=O)CCCCCCCCCCCCCCCCCCC(=O)O)C(=O)O)NC(=O)[C@H](CC(C)C)NC(=O)[C@@H](NC(=O)[C@H](CO)NC(=O)[C@@H](NC(=O)[C@H](CC(=O)O)NC(=O)[C@H](CO)NC(=O)[C@@H](NC(=O)[C@H](Cc1ccccc1)NC(=O)[C@@H](NC(=O)CNC(=O)[C@H](CCC(=O)O)NC(=O)C(C)(C)NC(=O)[C@@H](N)Cc1c[nH]cn1)[C@@H](C)O)[C@@H](C)O)C(C)C)C(C)C)C(=O)N[C@@H](CCC(=O)O)C(=O)N[C@@H](Cc1c[nH]cn1)C(=O)N[C@@H](CC(C)C)C(=O)N[C@H](C(N)=O)C(C)C` [compound 29] (H-H[Aib]EGTFTSDVSVLK([AEEA-AEEA-γGlu-C20 diacid])EFAAAQRFLEHLV-NH2), for which, on SCTR, the EC50 was 794 nM. The Fibril formation in series [1] stood at 28786. For the same molecule, on GLP1R, the Selectivity came out at 8541 and the EC50 is 0.1 nM. Besides, in series [2], the “Turbidity (pH 7)” value is 0.08.

With `CC(C)C[C@H](NC(=O)[C@H](Cc1ccccc1)NC(=O)[C@H](CCCNC(=N)N)NC(=O)[C@H](CCC(N)=O)NC(=O)[C@@H](NC(=O)[C@H](C)NC(=O)[C@H](C)NC(=O)[C@H](CCC(=O)O)NC(=O)[C@H](CCC(=O)O)NC(=O)[C@H](CCCCNC(=O)COCCOCCNC(=O)COCCOCCNC(=O)CC[C@H](NC(=O)CCCCCCCCCCCCCCCCCCC(=O)O)C(=O)O)NC(=O)[C@H](CC(C)C)NC(=O)[C@H](Cc1ccc(O)cc1)NC(=O)[C@H](CO)NC(=O)[C@@H](NC(=O)[C@H](CC(=O)O)NC(=O)[C@H](CO)NC(=O)[C@@H](NC(=O)[C@H](Cc1ccccc1)NC(=O)[C@@H](NC(=O)CNC(=O)[C@H](CCC(=O)O)NC(=O)C(C)(C)NC(=O)[C@@H](N)Cc1c[nH]cn1)[C@@H](C)O)[C@@H](C)O)C(C)C)[C@@H](C)O)C(=O)N[C@@H](CCC(=O)O)C(=O)N[C@@H](Cc1c[nH]cn1)C(=O)N[C@@H](CC(C)C)C(=O)N[C@H](C(N)=O)C(C)C` [compound 30] (H-H[Aib]EGTFTSDVSYLK([AEEA-AEEA-γGlu-C20 diacid])EEAATQRFLEHLV-NH2), the values for the EC50 at SCTR and on GLP1R were 251 nM and 0.0126 nM, respectively. In series [1], this molecule displayed a Fibril formation of 6899. The Selectivity at GLP1R worked out at 22387. In addition, the “Turbidity (pH 7)” value in series [2] turned out to be 0.08.
